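A five-concentration, 48-hour dose response in 96-well plates underlies each endpoint, interpolated linearly between surrounding concentrations. GI50 = concentration required for 50% inhibition of growth.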 Active and inactive are the calls of the source. Rule as the data show it: active = GI50 up to about 1.1 µM and inactive = higher.
How the values were obtained:
Assay in all cases: DTP human tumour cell line panel, 48 h
A549 = system: A549
K562 = system: K562
KM12 = system: KM12
Malme-3M = system: Malme-3M
OVCAR-3 = system: OVCAR-3
RXF 393 = system: RXF 393
SF-295 = system: SF-295
SF-539 = system: SF-539
SK-MEL-28 = system: SK-MEL-28
SNB-19 = system: SNB-19
SNB-75 = system: SNB-75
SNB-78 = system: SNB-78
SR = system: SR
SW-620 = system: SW-620
U-251 = system: U-251
UO-31 = system: UO-31
A498 = system: A498
NCI-H522 = system: NCI-H522

Measured: GI50

COc1cc(C(C)c2cc3c(cc2OCCCCOc2cc4c(cc2C(C)c2cc(OC)c(OC)c(OC)c2)OCO4)OCO3)cc(OC)c1OC (stereo not drawn)
inactive: A549 48.4 µM | K562 28.2 µM | KM12 33 µM | Malme-3M 35.6 µM | OVCAR-3 21.7 µM | RXF 393 17.6 µM | SF-295 26.5 µM | SF-539 23.7 µM | SK-MEL-28 71 µM | SNB-19 > 100 µM | SNB-75 24.8 µM | SNB-78 20.1 µM | SR 10.2 µM | SW-620 26.9 µM | U-251 29.7 µM | UO-31 46.3 µM

Cc1ccc(NS(=O)(=O)c2cc(C(C)(C)C)ccc2OCCOCCOCCOc2ccc(C(C)(C)C)cc2S(=O)(=O)Nc2ccc(C)cc2)cc1
inactive: A498 > 100 µM | A549 > 100 µM | K562 > 100 µM | KM12 > 100 µM | Malme-3M > 100 µM | OVCAR-3 > 100 µM | RXF 393 > 100 µM | SF-295 > 100 µM | SF-539 > 100 µM | SK-MEL-28 > 100 µM | SNB-19 > 100 µM | SNB-75 > 100 µM | SNB-78 > 100 µM | SW-620 > 100 µM | U-251 > 100 µM | UO-31 > 100 µM

S=c1nc2c(c[nH]1)C1c3ccccc3C2c2ccccc21
inactive: A549 68.9 µM | K562 45.6 µM | KM12 44.1 µM | Malme-3M > 100 µM | NCI-H522 46 µM | OVCAR-3 67.5 µM | RXF 393 35.2 µM | SF-295 40.1 µM | SF-539 > 100 µM | SK-MEL-28 > 100 µM | SNB-19 82.4 µM | SNB-75 15.9 µM | SNB-78 > 100 µM | SR 34 µM | SW-620 > 100 µM | U-251 91.2 µM | UO-31 39.5 µM

O=C1C2Cc3ccccc3CN2C(=O)N1CN1CCN(CN2C(=O)C3Cc4ccccc4CN3C2=O)CC1 (stereo not drawn)
inactive: A498 > 100 µM | A549 > 100 µM | K562 > 100 µM | KM12 > 100 µM | Malme-3M > 100 µM | NCI-H522 > 100 µM | OVCAR-3 > 100 µM | RXF 393 > 100 µM | SF-295 > 100 µM | SF-539 > 100 µM | SK-MEL-28 > 100 µM | SNB-19 > 100 µM | SNB-75 > 100 µM | SNB-78 > 100 µM | SW-620 > 100 µM | U-251 > 100 µM | UO-31 > 100 µM

CC(C)(C)C1CCC2(CC1)c1[nH]c3ccccc3c1C1(CCC(C(C)(C)C)CC1)c1[nH]c3ccccc3c12 (stereo not drawn)
inactive: A498 > 100 µM | A549 > 100 µM | K562 > 100 µM | KM12 > 100 µM | Malme-3M > 100 µM | NCI-H522 > 100 µM | RXF 393 > 100 µM | SF-295 > 100 µM | SF-539 > 100 µM | SK-MEL-28 > 100 µM | SNB-19 > 100 µM | SNB-75 70.1 µM | SNB-78 > 100 µM | SW-620 39.4 µM | U-251 87.3 µM | UO-31 > 100 µM

CON1C(=O)C2(CCCCC2)C(=O)C12C=CC(C)CC2 (stereo not drawn)
inactive: A498 > 100 µM | A549 > 100 µM | K562 85.5 µM | KM12 > 100 µM | Malme-3M > 100 µM | NCI-H522 95.1 µM | OVCAR-3 > 100 µM | RXF 393 30.7 µM | SF-295 > 100 µM | SF-539 > 100 µM | SK-MEL-28 > 100 µM | SNB-19 > 100 µM | SNB-75 > 100 µM | SNB-78 > 100 µM | SW-620 > 100 µM | U-251 > 100 µM | UO-31 47.4 µM

COC(=O)C1=C(c2ccc(OC)c(OC)c2)OC(c2cc(OC)c(OC)c(OC)c2)C1 (stereo not drawn)
inactive: A498 25.6 µM | A549 > 100 µM | K562 > 100 µM | KM12 33.1 µM | Malme-3M 42.4 µM | OVCAR-3 38.1 µM | RXF 393 22.1 µM | SF-295 23 µM | SF-539 30.2 µM | SK-MEL-28 > 100 µM | SNB-75 7.31 µM | SNB-78 22.8 µM | SW-620 41.6 µM | U-251 13.5 µM | UO-31 > 100 µM

CC1=NN(C(=O)Cc2ccccc2)C(=O)/C1=C\C=C\c1ccccc1
inactive: A549 > 100 µM | K562 > 100 µM | KM12 > 100 µM | Malme-3M > 100 µM | NCI-H522 > 100 µM | OVCAR-3 > 100 µM | SF-295 > 100 µM | SF-539 > 100 µM | SK-MEL-28 > 100 µM | SNB-19 > 100 µM | SNB-75 > 100 µM | SNB-78 83.6 µM | SR > 100 µM | SW-620 > 100 µM | UO-31 > 100 µM

COC(=O)C1=C(C)N(NC(N)=O)C2(N)N(NC(N)=O)C(C)=C(C(=O)OC)C12C#N (stereo not drawn)
inactive: A498 > 100 µM | A549 > 100 µM | K562 > 100 µM | KM12 > 100 µM | Malme-3M > 100 µM | NCI-H522 > 100 µM | OVCAR-3 > 100 µM | SF-295 > 100 µM | SF-539 > 100 µM | SK-MEL-28 > 100 µM | SNB-19 > 100 µM | SNB-78 > 100 µM | SW-620 > 100 µM | U-251 > 100 µM | UO-31 > 100 µM

CC1(C)CCc2cc3c(cc2O1)OC(C)(C)C1c2c(ccc4c2CCC(C)(C)O4)OC31 (stereo not drawn)
inactive: A549 > 100 µM | K562 > 100 µM | KM12 > 100 µM | NCI-H522 > 100 µM | OVCAR-3 78.3 µM | SF-295 > 100 µM | SF-539 > 100 µM | SNB-78 > 100 µM | SR > 100 µM | SW-620 > 100 µM | U-251 > 100 µM | UO-31 > 100 µM

CC1=C(C(=O)Nc2ccc([N+](=O)[O-])cc2)C(c2cccc([N+](=O)[O-])c2)C(C(=O)Nc2ccc([N+](=O)[O-])cc2)=C(C)N1
inactive: A498 32.8 µM | A549 29.7 µM | K562 9.93 µM | KM12 12.1 µM | Malme-3M 25.2 µM | NCI-H522 20.5 µM | OVCAR-3 44.5 µM | RXF 393 16.2 µM | SF-295 30.1 µM | SF-539 60.3 µM | SK-MEL-28 30.7 µM | SNB-19 52.7 µM | SNB-75 23.7 µM | SNB-78 > 100 µM | SW-620 31.9 µM | U-251 9.71 µM | UO-31 > 100 µM

C1=CC=C2NCCOCC/N=C3/C=CC=CC=C3NCCOCC/N=C\2C=C1
inactive: A498 > 100 µM | A549 63.7 µM | K562 31.4 µM | KM12 66.2 µM | Malme-3M 21.5 µM | NCI-H522 > 100 µM | OVCAR-3 > 100 µM | SF-295 52 µM | SK-MEL-28 86.5 µM | SNB-19 > 100 µM | SNB-75 > 100 µM | SNB-78 > 100 µM | SW-620 32.4 µM | U-251 > 100 µM | UO-31 > 100 µM
